Results published in US20200275665A1, “PREPARATION COMPRISING AT LEAST ONE CHEMICAL FUNGICIDE AND A MIXTURE COMPRISING AUREOBASIDIUM PULLULANS STRAINS” (Erber Aktiengesellschaft, priority 2017, published 2020).
Values joined by “and” are separate entries in the source; they are usually repeats but may differ in a detail not shown here. Identical values can stand only once.

How the values were obtained:
[1] = tested on: Pezicula malicorticis 160622 (DSM 62715); test: Apple test (wound inoculation), Pezicula malicorticis 160622; format: in vivo; details: apples Elstar Fuchshof, 20° C., 16 days; Aureobasidium overall 1×10^7 cells/ml; fludioxonil 0.125 g/l, cyprodinil 0.1875 g/l
Method: The effect of the Aureobasidium pullulans strains AP 241 (DSM 32467), AP 268 (DSM 32468), DSM 14940 and DSM 14941 (individually or in combination), together with the chemical fungicides cyprodinil and fludioxonil (individually or in combination), against the fungal plant pathogens Botrytis and Neofabreaea was determined in an apple test. 12 untreated apples of the same cultivar, having a uniform degree of maturity and size, were used for each treatment. Prior to the test, the apples were surface-sterilized for three minutes in 70% ethanol and dried in a clean bench. Four wounds, having a wound diameter of 5 mm, were made at equal distances in each apple in the equatorial plane between the calyx and the stem using a sterile pipette tip. Immediately after the creation of the four artificial wounds, 10 μl of different test solutions (preparations) was applied to each apple. Thereafter, the apples were stored. An area of decay formed around the wounds, the diameter of the area representing a measure of the spread of the infection with the pathogen. For the evaluation, the diameters of the punctures of 0.5 cm each were deducted from the diameter of the decay area.
The 4 test solutions that were each placed in one of the 4 wounds of each apple were: • 1. Pathogen (negative control) • 2. Pathogen and Aureobasidium pullulans (individually or in combination) • 3. Pathogen and chemical fungicide (individually or in combination) • 4. Pathogen and Aureobasidium pullulans (individually or in combination) and chemical fungicide (individually or in combination)
(§1) The effectiveness of the inhibition of the pathogen was calculated for test solutions 2 to 4 from the diameters of the areas of decay, which were measured at the end of the storage period. […]
(§2) According to the Colby formula (S. R. Colby “Calculating synergistic and antagonistic responses of herbicide combinations,” Weeds 15, pages 20 to 22, 1967), expected values (E) of the effect of the combination of Aureobasidium and the chemical fungicide (test solution 4) were calculated from the effectiveness (WG) figures of the individual components in test solutions 2 and 3 according to the following formula: […]
If the measured effectiveness of the combination of the Aureobasidium pullulans strains and the chemical fungicide (test solution 4) is greater than the calculated expected value (E), this is referred to as a synergistic effect (the individual components potentiate each other in an over-additive effect). The synergism factor is a measure of the synergistic effect and was calculated as the quotient from the effectiveness of the combination of the substances or components (test solution 4) and the calculated expected value (E). […]

[2] = tested on: Botrytis cinerea Bc97 (DSM 32469); test: Apple test (wound inoculation), Botrytis cinerea Bc97; format: in vivo; details: apples Jonagold Honsel, 20° C., 6 days; Aureobasidium 5×10^6 cells/ml total; fludioxonil 0.125 g/l, cyprodinil 0.1875 g/l
Method: The effect of the Aureobasidium pullulans strains AP 241 (DSM 32467), AP 268 (DSM 32468), DSM 14940 and DSM 14941 (individually or in combination), together with the chemical fungicides cyprodinil and fludioxonil (individually or in combination), against the fungal plant pathogens Botrytis and Neofabreaea was determined in an apple test. 12 untreated apples of the same cultivar, having a uniform degree of maturity and size, were used for each treatment. Prior to the test, the apples were surface-sterilized for three minutes in 70% ethanol and dried in a clean bench. Four wounds, having a wound diameter of 5 mm, were made at equal distances in each apple in the equatorial plane between the calyx and the stem using a sterile pipette tip. […]
as §1, §2

SMILES	Effectiveness (decrease in diameter of decay area vs. negative control) [1] [%]	Mean diameter of decay areas [1] [cm]	Mean diameter of decay areas [2]
Cc1cc(C2CC2)nc(Nc2ccccc2)n1 [cyprodinil]	17.0	1.61	2.80 cm and 3.14 cm and 2.21 cm and 2.52 cm and 3.63 cm and 3.51 cm and 3.38 cm
N#Cc1c[nH]cc1-c1cccc2c1OC(F)(F)O2 [fludioxonil]	−3.8	1.91	–
